According to patent publication US7160700B2, “Glycosyltransferase genes” (International Flower Developments Proprietary Limited, priority 2000, dated 2007):

Key:
3′GT = target: T1, 3′GT (Gentiana triflora, UniProt Q8H0F2); assay: Analysis of substrate specificity of purified 3′GT expressed in Escherichia coli (glucose transfer from UDP-glucose, HPLC); format: biochemical, gentian; conditions: compound used as substrate; for relative activity: activity to delphinidin 3,5-glucoside assumed to be 100%; for 3′GT activity to substrate (qualitative): purified sample of 3′GT from E. coli
T1 construct: the region from the initiation methionine to poly A of pG3′GT7 was inserted in the NcoI/KpnI site of E. coli expression vector pQE61; made in house; host or cells: Escherichia coli JM105 (vector pQE61, plasmid pG3′Q1)
T1 sequence (Q8H0F2 1-482): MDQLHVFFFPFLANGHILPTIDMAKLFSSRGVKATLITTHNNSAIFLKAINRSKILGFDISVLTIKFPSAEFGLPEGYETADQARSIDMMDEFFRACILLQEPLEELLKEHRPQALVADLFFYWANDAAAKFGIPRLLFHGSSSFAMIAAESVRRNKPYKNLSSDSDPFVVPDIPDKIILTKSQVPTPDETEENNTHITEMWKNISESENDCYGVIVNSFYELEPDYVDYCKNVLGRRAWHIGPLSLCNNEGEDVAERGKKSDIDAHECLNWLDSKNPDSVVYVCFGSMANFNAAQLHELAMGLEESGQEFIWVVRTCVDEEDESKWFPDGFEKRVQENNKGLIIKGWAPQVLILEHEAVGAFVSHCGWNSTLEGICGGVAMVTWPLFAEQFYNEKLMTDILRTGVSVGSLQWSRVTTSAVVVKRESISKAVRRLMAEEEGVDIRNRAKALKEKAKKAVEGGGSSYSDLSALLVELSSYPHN
Method: (§1) 20 μl of the crude enzyme extract solution, 10 μl of 0.5M potassium phosphate (pH 8.5), 10 μl of 5 mM UDP-glucose, 10 μl of delphinidin 3,5-diglucoside (1.5 mg/ml) were mixed and maintained at 30° C. for 10 minutes. Then, following the procedure of Fujiwara et al. (Fujiwara et al. Plant J. (1998)), reaction was terminated, and the reaction product was analyzed using high performance liquid chromatography (HPLC). As a result, it was determined that gentian flower petals contain an enzyme having activity to transfer a glycosyl group to the 3′-position of an anthocyanin.
Using the PCR method, an NcoI site was introduced so as to coincide with the initiation methionine codon of pG3′GT7, and the region from the initiation methionine to poly A of pG3′GT7 was inserted in the NcoI/KpnI site of E. coli expression vector pQE61 (QIAGEN). The obtained E. coli expression vector was denoted by pG3′Q1. pG3′Q1 was introduced into the Escherichia coli JM105 strain, and after preculturing overnight at 37° C., a part of the precultured medium was innoculated into 8 L of a main culture medium, and was cultured at 27° C. until OD600=0.6. To induce expression of the 3′GT gene, IPTG was added so as to reach a final concentration of 0.4 mM, and was cultured overnight at 27° C. After cells were collected, washed, and suspended in 400 ml of crushing buffer (25 mM Tris-HCl (pH 7.5), 250 mM NaCl, 1 mM EDTA, 0.5% β-mercaptoethanol), the cells were disrupted by ultrasonic treatment. After centrifuging, the resultant supernatant was subjected to processing with DE52, and a 40–70% ammonium sulfate precipitate fraction was recovered. After desalting, the crude protein solution was loaded onto a DEAE-TOYOPEARL (Toso Co.) preequilibrated with buffer C (25 mM Tris-HCl (pH 7.5), 0.5% β-mercaptoethanol), and was eluted with buffer C containing 0–0.5 M NaCl. The active fraction was recovered, adsorbed to BlueA (Amicon Co.) equilibrated buffer C, and was eluted with a linear gradient formed with the buffer C and the buffer C containing 2 M NaCl. The obtained active fraction was used in the reaction, to be described later, as a purified sample of the 3′GT portion.
Using the purified sample of the 3′GT portion obtained in Example 6, the substrate-specificity of the 3′GT was analyzed. […] Assuming the relative activity to delphinidin 3,5-glucoside to be 100%, the activity to delphinidin 3-glucosyl-5-caffeoylglucoside is about 50%. Trace amount of products (1% or less) were also observed using delphinidin or delphinidin 3-diglucoside as a substrate. From retention time of HPLC and the absorption spectrum, the reaction product is considered to be a substrate having a glycosyl group added to the 3′-position thereof.

[1] = target: T2, protein which has activity to transfer a glycosyl group to the 3′-position of anthocyanins (Gentiana triflora, UniProt Q8H0F2); assay: Enzyme activity of extract from yeast transformed with pYG3′GT7 (measured as in Example 1, HPLC); format: biochemical, gentian; conditions: compound used as substrate
T2 construct: A DNA fragment of approximately 1.6 kbp, which was obtained by digestion of pG3′GT7 with XhoI, was recovered; made in house; extract after glass-bead disruption
T2 sequence (Q8H0F2 1-482): T1 sequence (Q8H0F2 1-482)
Method: as §1
A DNA fragment of approximately 1.6 kbp, which was obtained by digestion of pG3′GT7 with XhoI, was recovered. This DNA was ligated to a DNA fragment obtained by digesting pYE22m with SaII, and the obtained plasmid that has the initiation codon nearer to the promotor on pYE22m was denoted by pYG3′GT7. pYE22m was constructed according to the method as set forth in Japanese Patent Publication No. 4-228078. This plasmid was introduced into yeast cells to obtain transformed yeast cells. After the yeast cells were cultured and disrupted with glass beads, enzyme activity was measured as in Example 1 using delphinidin 3,5-diglucoside as substrate.
No activity was found in the yeast in which the plasmid was not introduced. When cyanidin 3,5-diglucoside was used as substrate, no new peak was produced.

Row | Compound | relative activity (3′GT) | 3′GT activity to substrate (qualitative) (3′GT) | activity for adding a glycosyl group to substrate (qualitative) [1]
1 | OC[C@H]1O[C@@H](Oc2cc3c(O[C@@H]4O[C@H](CO)[C@@H](O)[C@H](O)[C@H]4O)cc(O)cc3[o+]c2-c2cc(O)c(O)c(O)c2)[C@H](O)[C@@H](O)[C@@H]1O [delphinidin 3,5-diglucoside] | 100% | exhibits activity | exhibits activity
2 | delphinidin 3-glucosyl-5-caffeoylglucoside | about 50% | exhibits activity | –
3 | OC[C@H]1O[C@@H](Oc2cc3c(O[C@@H]4O[C@H](CO)[C@@H](O)[C@H](O)[C@H]4O)cc(O)cc3[o+]c2-c2ccc(O)c(O)c2)[C@H](O)[C@@H](O)[C@@H]1O [cyanidin 3,5-diglucoside] | – | not | exhibits no activity
